Results on two compounds are retold here after patent US12281125B2, “Rapamycin derivatives” (NOVARTIS AG, priority 2018, dated 2025).

Assay [1] addresses T1, FKBP12 (Homo sapiens, UniProt P62942).
T1 construct: made in house; host or cells: E. coli
Briefly: SPR assay, binding affinity to FKBP12. The following applies: equilibrium dissociation constant. The text has this:
(§1) N-terminal avi-his6-tagged FKBP fusion proteins were expressed in E. coli and purified with nickel chromatography using standard procedures. Biotinylated his-avi-FKBPs were immobilized on a streptavidin chip using a Biacore 8K (GE Healthcare). […] The single-cycle kinetics data were fit to a 1:1 binding model to measure the association rate ka (1/Ms), the dissociation rate kd (1/s) and the affinity KD (M). […] The single-cycle kinetics data was fit to a 1:1 binding model to measure the association rate ka (1/Ms), the dissociation rate kd (1/s) and the apparent affinity KD (M) for ternary complex formation. The equilibrium dissociation constants (KD) to FKBP12, FKBP51, and FKBP52 are shown below in Table 6.
For orientation: SPR reads the build-up and loss of mass on a sensor chip optically.

The target of assay [2] is T2, FKBP51 (Homo sapiens, UniProt Q13451).
T2 construct: made in house; host or cells: E. coli
T2 sequence (Q13451 1-457): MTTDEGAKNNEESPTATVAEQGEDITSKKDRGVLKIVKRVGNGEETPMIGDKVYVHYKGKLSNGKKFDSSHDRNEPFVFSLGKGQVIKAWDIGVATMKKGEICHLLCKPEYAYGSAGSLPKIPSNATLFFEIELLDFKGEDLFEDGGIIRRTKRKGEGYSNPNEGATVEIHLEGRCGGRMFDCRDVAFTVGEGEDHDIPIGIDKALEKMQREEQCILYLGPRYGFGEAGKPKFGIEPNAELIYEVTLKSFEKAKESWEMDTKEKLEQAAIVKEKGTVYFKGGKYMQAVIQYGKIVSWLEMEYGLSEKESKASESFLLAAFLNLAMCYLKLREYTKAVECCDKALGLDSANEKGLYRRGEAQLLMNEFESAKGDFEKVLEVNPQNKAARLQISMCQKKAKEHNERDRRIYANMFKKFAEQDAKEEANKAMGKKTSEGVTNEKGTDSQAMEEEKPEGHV
Briefly: SPR assay, binding affinity to FKBP51. To be noted: equilibrium dissociation constant.
Source text: as §1

The target of assay [3] is T3, FKBP25-rapalog-mTOR (amino acids 2019-2112) ternary complex (Homo sapiens, UniProt P42345+Q00688).
T3 construct: his^6-mTOR (amino acids 2019-2112) was diluted in buffer; made in house; host or cells: E. coli
Briefly: SPR ternary complex formation, rapalog bound to FKBP25 with mTOR. It is filed as binding. The following applies: rapalog bound to FKBP with mTOR, read-out: FKBP25 apparent affinity KD for ternary complex formation. The protocol:
(§2) N-terminal avi-his6-tagged FKBP fusion proteins were expressed in E. coli and purified with nickel chromatography using standard procedures. Biotinylated his-avi-FKBPs were immobilized on a streptavidin chip using a Biacore 8K (GE Healthcare). To determine the kinetics-affinity of the rapalogs for FKBPs, rapalogs were diluted in DMSO to 50× working concentration. Next, 3.1 uLs of each rapalog solution was added to 150 uLs of buffer (50 mM Tris pH 7.5/150 mM NaCl/0.01% Tween 20/1 mM DTT) in a 384 deep well plate (greiner bio-one/78127) and mixed using a Biomek FX. The rapalog solution gradients (6 concentrations/2 fold dilutions, 3.1-100 nM or 31-1000 nM or 310-10000 nM) were then injected at 45 uL/min for 120 seconds: contact time and dissociation time was 1800 seconds in running buffer (50 mM Tris pH 7.5/150 mM NaCl/0.01% Tween 20/1 mM DTT/2% DMSO). The single-cycle kinetics data were fit to a 1:1 binding model to measure the association rate ka (1/Ms), the dissociation rate kd (1/s) and the affinity KD (M). […] 3.1 uLs of the 500 μM rapalog solutions were added to 150 uLs of the mTOR samples in a 384 deep well plate (greiner bio-one/78127) and mixed using a Biomek FX. The mTOR solution gradients were then injected at 45 uL/min for 120 seconds: contact time and dissociation time was 1800 seconds in running buffer (50 mM Tris pH 7.5/150 mM NaCl/0.01% Tween 20/1 mM DTT/2% DMSO). […]

Assay [4] deals with T4, FKBP52-rapalog-mTOR (amino acids 2019-2112) ternary complex (Homo sapiens, UniProt P42345+Q02790).
T4 construct: his^6-mTOR (amino acids 2019-2112) was diluted in buffer; made in house; host or cells: E. coli
Put plainly: SPR ternary complex formation, rapalog bound to FKBP52 with mTOR. It is filed as binding. The following applies: rapalog bound to FKBP with mTOR, read-out: FKBP52 apparent affinity KD for ternary complex formation. Here is the method:
as §2

Assay [5] relates to mTORC1 activity, S6K1 (Thr389) in WT 293T cells. Put plainly: S6K1(Thr389) phosphorylation ELISA in wild-type 293T cells. It is filed as cell-based. The following applies: 2 hours. Here is the method: WT, FKBP12 knock-out, FKBP12/12.6/13/52/51 knock-out or FKBP12/12.6/25/52/51 knock-out 293T cells were plated at a density of 30,000 cells per well in poly-D-Lysine coated 96-well plates (Corning, #354461) in Dulbecco's modified Eagle's medium (ThermoFisher, #11995-065) supplemented with 10% fetal bovine serum (ThermoFisher, #16140-071). Cells were incubated at 37° C., 5% CO2 for 48 hours until they reached ˜80% confluence. […] Media supplemented with blank Dimethyl sulfoxide (DMSO) was used as a control for both compounds. Phosphorylated amounts of S6K1 (Thr389) were detected by a sandwich ELISA kit (Cell signaling, #7063C) following the manufacture's protocol.
S6K1 is a downstream target of mTORC1 and phosphorylation of its rapalog-sensitive Thir389 site is used as a functional readout of mTORC1 activity (Lee, C. H., Inoki, K. and Guan, K. L. (2007). mTOR pathway as a target in tissue hypertrophy. Annu. Rev. Pharmacol. Toxicol. 47, 443-467).
Background: ELISA stands for enzyme-linked immunosorbent assay.

Each structure is given as a SMILES string.

T4 sequence (Q02790 whole entry, the tested form may be a part): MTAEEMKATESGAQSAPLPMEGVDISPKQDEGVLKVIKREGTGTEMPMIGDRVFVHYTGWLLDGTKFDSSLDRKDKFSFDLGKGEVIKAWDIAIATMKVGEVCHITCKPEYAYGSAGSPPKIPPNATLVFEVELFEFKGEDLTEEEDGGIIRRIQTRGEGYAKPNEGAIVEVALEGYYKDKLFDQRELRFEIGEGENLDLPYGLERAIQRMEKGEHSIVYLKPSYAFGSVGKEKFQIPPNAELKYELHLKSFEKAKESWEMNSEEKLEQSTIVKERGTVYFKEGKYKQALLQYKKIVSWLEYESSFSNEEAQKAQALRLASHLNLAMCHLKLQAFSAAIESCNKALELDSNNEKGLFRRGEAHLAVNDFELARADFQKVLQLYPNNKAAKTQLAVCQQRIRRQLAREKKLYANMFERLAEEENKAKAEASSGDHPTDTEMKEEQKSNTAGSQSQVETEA
T4 sequence (P42345 2019-2112 limits assumed): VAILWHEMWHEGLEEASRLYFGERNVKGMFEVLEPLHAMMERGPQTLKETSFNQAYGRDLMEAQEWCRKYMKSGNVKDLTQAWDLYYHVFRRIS
T3 sequence (Q00688 whole entry, the tested form may be a part): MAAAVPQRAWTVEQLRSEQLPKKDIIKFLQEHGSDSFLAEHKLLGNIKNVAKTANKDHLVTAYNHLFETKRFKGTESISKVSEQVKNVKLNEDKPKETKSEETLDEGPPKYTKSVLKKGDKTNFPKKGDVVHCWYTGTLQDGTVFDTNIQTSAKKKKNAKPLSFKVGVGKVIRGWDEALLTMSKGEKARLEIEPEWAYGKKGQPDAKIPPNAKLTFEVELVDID
T3 sequence (P42345 2019-2112 limits assumed): as the sequence (P42345 2019-2112 limits assumed) above
T1 sequence (P62942 whole entry): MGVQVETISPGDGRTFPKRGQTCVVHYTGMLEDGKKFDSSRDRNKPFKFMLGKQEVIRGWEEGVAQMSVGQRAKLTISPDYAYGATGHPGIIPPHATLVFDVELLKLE

Take `CO[C@@H]1C[C@H](C[C@@H](C)[C@@H]2CC[C@H](C)/C=C(\C)[C@@H](O)[C@@H](OC)C(=O)[C@H](C)C[C@H](C)/C=C/C=C/C=C(\C)[C@@H](NS(C)(=O)=O)C[C@@H]3CC[C@@H](C)[C@@](O)(O3)C(=O)C(=O)N3CCCC[C@H]3C(=O)O2)CC[C@H]1O` [Compound 2]: the Kd came out at 0.0048 µM in assay [1], 0.144 µM in assay [2], 0.002 µM in assay [3] and 0.036 µM in assay [4]. Also, the “inhibition of S6K1(Thr389) phosphorylation” value in assay [5] is on record as ~80%.
In the case of `CO[C@H]1C[C@@H]2CC[C@@H](C)[C@@](O)(O2)C(=O)C(=O)N2CCCC[C@H]2C(=O)O[C@H]([C@H](C)C[C@@H]2CC[C@@H](OCCO)[C@H](OC)C2)CC(=O)[C@H](C)/C=C(\C)[C@@H](O)[C@@H](OC)C(=O)[C@H](C)C[C@H](C)/C=C/C=C/C=C/1C` [RAD001, everolimus, reference compound], the Kd in assay [2] is 0.811 µM; in assay [3] it was 0.075 µM; in assay [4], 0.253 µM. In addition, the “inhibition of S6K1(Thr389) phosphorylation” value in assay [5] was ~80%.
